Data: patent publication US6599715B1, “Real time viability detection of bacterial spores” (priority 1999, dated 2003)

These molecules were tested on Bacillus globigii spores. Settings: relative germination; phase change monitored at 450 nm over 10 minutes; 3.6×10^8 spores per ml in 20 mM potassium phosphate buffer (pH 7.4).
Type: cell-based
Method: Bacillus cultures were grown at 30° C. with moderate aeration for 7 days. Spores were harvested by centrifugation at 10,900×g for 30 minutes at 4° C. and resuspended in 200 milliliters (ml) of sterile distilled water and washed 7 to 10 times, heated to 65° C. for 15 minutes to kill any vegetative cells, and stored at 4° C. Spore populations were determined from the average of 3 serial dilution plates.
B. globigii spores (500 microliters (μl)) were diluted to a concentration of 3.6×10^8 spores per ml in 20 millimolar (mM) potassium phosphate buffer (pH 7.4), and mixed with 500 μl of a 0.12 M solution of one or more of L-alanine, L-asparagine and D-glucose, together with DPA and other chemicals to test the effectiveness of various combinations as germinating agents. The phase change of the spores in the germinants was monitored at 450 nm over a period of 10 minutes.

| SMILES | Percent germination [%] |
| --- | --- |
| NC(=O)C[C@H](N)C(=O)O [20 mM L-asparagine, L-asparagine] | 5.2 |
| O=C[C@H](O)[C@@H](O)[C@H](O)[C@H](O)CO [20 mM D-glucose, D-glucose] | 7.0 |
| C[C@H](N)C(=O)O [20 mM L-alanine, L-alanine] | 50.1 |
| O=C(O)c1cccc(C(=O)O)n1 [20 mM DPA, pyridine-2,6-dicarboxylic acid] | 7.3 |
